Active and inactive are the calls of the source. No cut-off for these calls is given here.
Tests used:
[1] = test system: Radical scavenging activity; experiment: Antioxidant activity assessed as concentration required for 50% DPPH free radical scavenging activity after 30 min by spectrophotometric analysis; type: functional
[2] = test system: Radical scavenging activity; experiment: Antioxidant activity assessed as DPPH free radical scavenging activity at 20 ug/ml after 30 min by spectrophotometric analysis; type: functional
[3] = target: Lysosomal alpha-glucosidase (Rattus norvegicus) (UniProt Q6P7A9); experiment: Inhibition of rat intestinal alpha-glucosidase using para-nitrophenyl-alpha-D-glucopyranoside as substrate at 25 ug/ml incubated for 5 min prior to substrate addition measured after 5 min by spectrophotometric analysis
Rattus norvegicus [4] = experiment: Antihyperglycemic activity in starch-induced post-parandial hyperglycemic Rattus norvegicus Wistar (rat) model assessed as decrease in plasma glucose level at 10 mg/kg, po administered via gastric intubation by glucose-oxidase test; type: functional, organism-based; design: dose 10 mg/kg; conditions: TDE = time-dependent effect
Rattus norvegicus [5] = experiment: Antihyperglycemic activity in starch-induced post-parandial hyperglycemic Rattus norvegicus Wistar (rat) model assessed as decrease in plasma AUC at 10 mg/kg, po administered via gastric intubation administered 15 min followed by starch challenge measured after 30 to 120 min by glucose-oxidase test; type: functional, organism-based; design: dose 10 mg/kg
Rattus norvegicus [6] = experiment: Antihyperglycemic activity in starch-induced post-parandial hyperglycemic Rattus norvegicus Wistar (rat) model assessed as decrease in plasma glucose level at 50 mg/kg, po administered via gastric intubation by glucose-oxidase test; type: functional, organism-based; design: dose 50 mg/kg; conditions: TDE = time-dependent effect
Rattus norvegicus [7] = experiment: Antihyperglycemic activity in starch-induced post-parandial hyperglycemic Rattus norvegicus Wistar (rat) model assessed as decrease in plasma AUC at 50 mg/kg, po administered via gastric intubation administered 15 min followed by starch challenge measured after 30 to 120 min by glucose-oxidase test; type: functional, organism-based; design: dose 50 mg/kg

Chain of Lysosomal alpha-glucosidase (Rattus norvegicus) (Q6P7A9 whole entry): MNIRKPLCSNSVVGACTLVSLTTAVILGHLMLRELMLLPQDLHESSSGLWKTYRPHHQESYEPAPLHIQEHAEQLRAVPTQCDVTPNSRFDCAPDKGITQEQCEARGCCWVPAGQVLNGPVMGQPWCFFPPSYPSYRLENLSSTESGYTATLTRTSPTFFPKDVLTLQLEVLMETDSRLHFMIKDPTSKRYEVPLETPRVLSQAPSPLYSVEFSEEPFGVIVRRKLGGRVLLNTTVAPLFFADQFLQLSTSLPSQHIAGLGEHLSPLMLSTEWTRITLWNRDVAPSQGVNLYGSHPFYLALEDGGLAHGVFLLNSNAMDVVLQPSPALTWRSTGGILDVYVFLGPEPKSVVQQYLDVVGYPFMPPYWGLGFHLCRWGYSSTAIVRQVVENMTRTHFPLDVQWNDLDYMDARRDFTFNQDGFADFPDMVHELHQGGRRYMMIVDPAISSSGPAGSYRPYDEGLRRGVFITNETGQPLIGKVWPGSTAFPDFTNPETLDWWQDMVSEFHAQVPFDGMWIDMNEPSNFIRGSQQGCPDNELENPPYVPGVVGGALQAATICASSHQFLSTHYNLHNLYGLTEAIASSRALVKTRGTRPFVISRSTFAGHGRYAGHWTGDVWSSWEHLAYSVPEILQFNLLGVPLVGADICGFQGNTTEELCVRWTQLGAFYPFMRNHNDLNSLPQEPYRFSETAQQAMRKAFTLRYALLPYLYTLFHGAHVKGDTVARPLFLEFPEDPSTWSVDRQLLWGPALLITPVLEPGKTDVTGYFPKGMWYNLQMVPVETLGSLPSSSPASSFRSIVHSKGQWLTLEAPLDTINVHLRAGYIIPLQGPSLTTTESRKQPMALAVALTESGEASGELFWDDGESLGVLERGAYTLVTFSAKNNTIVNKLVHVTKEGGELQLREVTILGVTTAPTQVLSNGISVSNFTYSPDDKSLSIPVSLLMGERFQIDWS

inhibition [3] | SMILES | Activity [1] | Activity [2] | further results
 | Cc1c(C)c2c(c(C)c1O)CCC(C)(C(=O)O)O2 (stereo not given) | 4.8 µM | 99.5% | 
68% | COc1cc(OC)c(OC)cc1/C=C/C(=O)c1cc2ccoc2cc1O |  | 17.1% | 
89.3% | COc1ccc(/C=C/C(=O)c2cc3ccoc3cc2O)cc1OC |  | 8.78% | 
67.3% | COc1ccc(/C=C/C(=O)c2ccc3occc3c2O)c(OC)c1OC |  | 7.3% | 
61.5% | O=C(/C=C/c1ccc(O)c(O)c1)c1ccc2occc2c1O | 29.7 µM | 67.9% | 
67.6% | O=C(/C=C/c1ccccc1)c1cc2ccoc2cc1O |  | 9.91% | 
 | C[C@H]1O[C@H](O[C@H]2[C@H](O)[C@@H](O)[C@@H](O[C@H]3[C@H](O)[C@@H](O)C(O)O[C@@H]3CO)O[C@@H]2CO)[C@H](O)[C@@H](O)[C@@H]1N[C@H]1C=C(CO)[C@@H](O)[C@H](O)[C@H]1O (stereo not given in full) |  |  | Activity (Rattus norvegicus [4]): tde; Activity (Rattus norvegicus [5]): Active
62.7% | O=C(/C=C/c1ccc(O)c(O)c1)c1cc2ccoc2cc1O | 26.2 µM | 69.8% | 
89.5% | COc1ccc(/C=C/C(=O)c2ccc3occc3c2O)cc1OC |  |  | Activity (Rattus norvegicus [6]): tde; Activity (Rattus norvegicus [7]): Active
45% | COc1cc(/C=C/C(=O)c2ccc3occc3c2O)ccc1O |  | 54.2% | 
48.9% | COc1ccc(/C=C/C(=O)c2cc3ccoc3cc2O)cc1 |  |  | 
65.7% | O=C(/C=C/c1ccc(O)cc1)c1ccc2occc2c1O | 17.8 µM | 75.8% | 
8.77% | O=C(/C=C/c1ccc(O)cc1)c1cc2ccoc2cc1O | 12 µM | 73.2% | 
52.8% | COc1cc(/C=C/C(=O)c2cc3ccoc3cc2O)ccc1O |  | 42.1% | 
20.8% | O=C(/C=C/c1ccccc1)c1ccc2occc2c1O |  | 7.57% | 
94.8% | COc1ccc(/C=C/C(=O)c2ccc3occc3c2O)cc1 |  |  | 

Reference: ChEMBL document CHEMBL3046873, “Synthesis of antihyperglycemic, -glucosidase inhibitory, and DPPH free radical scavenging furanochalcones” (Med Chem Res, 2012)
